Laboratory results taken from patent US10633375B2, “Oxopicolinamide derivative, preparation method therefor and pharmaceutical use thereof” (Jiangsu Hengrui Medicine Co., Ltd., priority 2016, dated 2020).
Blank lines part the entries; values can stand above or below the compound they belong to.

Legend:
[1] = Pharmacokinetics assay in rats after intragastrical administration; type: in vivo, Sprague-Dawley (SD) rats; conditions: SD rats, intragastric, 2 mg/kg; for Vd/F / AUC / CL/F / half-life / MRT / Cmax: both sexes, Sprague-Dawley, rat, plasma, po; for Vd/F: read-out: Apparent Distribution Volume Vz/F; for AUC: read-out: Area Under Curve AUC; for CL/F: read-out: Clearance CLz/F; for half-life: read-out: Half-Life T½ (converted); for MRT: read-out: Mean Residence Time MRT; for Cmax: read-out: Plasma Concentration Cmax
Excerpt: Test Example 3. Pharmacokinetics Assay of the Compounds of the Present Invention
Rats were used as test animals. […] The pharmacokinetic behavior of the compounds of the present invention was studied and evaluated in rats.
56 healthy adult Sprague-Dawley (SD) rats, half male and half female, were purchased from SINO-BRITSH SIPPR/BK LAB. ANIMAL LTD., CO, with License No.: SCXK (Shanghai) 2008-0016.
2.3 Preparation of the Test Compounds
A certain amount of the test compound was weighed, and added with 5% by volume of DMSO, 5% by volume of Tween 80 and 90% normal saline to prepare a 0.2 mg/mL colorless, clear and transparent solution.
After an overnight fast, SD rats were intragastrically administered at a dose of 2.0 mg/kg and an administration volume of 10.0 mL/kg.
Blood (0.2 mL) was taken from the orbital sinus before administration and at 0.5, 1.0, 2.0, 4.0, 6.0, 8.0, 11.0 and 24.0 hours after administration. The samples were stored in heparin anticoagulation tubes, and centrifuged for 10 minutes at 3500 rpm at 4° C. to separate the blood plasma. The plasma samples were stored at −20° C. The rats were fed 2 hours after administration.
The content of the test compound in the plasma of rats after intragastric administration of different concentrations of the drug was determined: 25 μL of rat plasma at each time after administration was taken and added with 30 μL (100 ng/mL) of the internal standard solution of camptothecin and 200 μL of acetonitrile, shaken vertically for 5 minutes, and centrifuged for 10 minutes (4000 rpm). 3.0 μL of the supernatant was taken from the plasma samples for LC/MS/MS analysis.
4. Results of Pharmacokinetic Parameters
Pharmacokinetic parameters of the compounds of the present invention in rats are shown below.

[2] = molecular target: Coagulation Factor XIa protease (Homo sapiens (Human), UniProt P03951); assay: Inhibition of Factor XIa detected by absorption photometry; type: biochemical; conditions: absorbance at 405 nm, 10 minutes at 37° C.
Coagulation Factor XIa protease, sequence (P03951 388-625): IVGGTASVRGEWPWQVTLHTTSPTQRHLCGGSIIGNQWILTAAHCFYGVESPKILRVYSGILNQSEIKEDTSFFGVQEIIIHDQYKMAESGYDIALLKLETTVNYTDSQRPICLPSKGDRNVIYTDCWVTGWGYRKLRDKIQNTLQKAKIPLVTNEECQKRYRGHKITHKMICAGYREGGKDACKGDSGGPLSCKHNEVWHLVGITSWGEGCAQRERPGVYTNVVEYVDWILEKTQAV
Coagulation Factor XIa protease, sequence (P03951 19-387 partner): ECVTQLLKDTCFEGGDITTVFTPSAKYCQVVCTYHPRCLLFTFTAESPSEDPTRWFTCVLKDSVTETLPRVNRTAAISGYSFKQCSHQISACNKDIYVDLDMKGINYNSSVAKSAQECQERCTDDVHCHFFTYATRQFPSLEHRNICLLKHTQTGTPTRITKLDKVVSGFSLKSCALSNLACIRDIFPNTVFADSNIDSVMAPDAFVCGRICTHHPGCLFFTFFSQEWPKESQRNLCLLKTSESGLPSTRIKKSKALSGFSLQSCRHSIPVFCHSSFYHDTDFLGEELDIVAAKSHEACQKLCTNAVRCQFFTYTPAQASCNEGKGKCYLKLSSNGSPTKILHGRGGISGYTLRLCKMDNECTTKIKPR
Description: Test Example 1: Biological Activity of the Compounds of the Present Invention on
The Inhibition of Factor XIa Detected by Absorption Photometry
(§1) 1. Experimental Materials
Enzyme: Coagulation Factor XIa protease (Abcam, Art. No ab62411)
Substrate: Coagulation Factor XIa specific substrate (HYPHEN1310 med, Art. No. Biophen cs-21(66))
2. Experimental Procedure
20 mM of test compound dissolved in 100% DMSO was diluted to 200, 20, 2, 0.2, 0.02, 0.002 μM with 100% DMSO; 1 μl of the compound was added to each well in a 384-well plate, blank and control wells were replaced with DMSO. The plate was centrifuged to remove the compound to the bottom. 10 μl (2.5 μg/ml) of FXIa enzyme solution was added to each well, and 10 μl of buffer was added to the blank well. The plate was centrifuged to remove the enzyme solution to the bottom.
Finally, 10 μl of 2 mM substrate were added to each well, and the plate was centrifuged to remove the substrate solution to the bottom.
The plate was incubated for 10 minutes at 37° C.; and then the absorbance was measured at 405 nm.

human blood = assay: In vitro anticoagulant effect on human blood (APTT, CT2); conditions: concentration corresponding to 2 times the APTT of the blank control, human plasma
Description: Test Example 2: Determination of In Vitro Anticoagulant Effect of the Compounds of the Present Invention on Human Blood
as §1
Plasma: Human blood was collected in blood collection tubes containing no anticoagulant, and then 3.8% sodium citrate (volume ratio 1:9) was added. The tubes were centrifuged at 2500 rpm for 10 minutes at room temperature, and then the plasma was collected and stored at −80° C.;
Reagents: APTT reagent (Activated partial thromboplastin time assay kit, SIEMENS, Art. No. B4218-1), calcium chloride solution;
Instrument: Coagulation instrument (SYSMEX, CA-500).
The divided plasma was melted at room temperature and mixed well. 10000 μM the test compound dissolved in 100% DMSO was diluted to 3000, 300, 200, 150, 75, 30, 10, 3, 0.3 μM with 100% DMSO, and the blank was 100% DMSO. The reagent, plasma, and compound were placed in corresponding positions in the coagulation instrument, and APTT detection of the compound was carried out.
Curve fitting was carried out by graphpad and CT2 was calculated, i.e., the concentration of the compound corresponding to 2 times the APTT of the blank control.

AUC difference, Example 84 versus Comparative Example 1 [1]: 7.5 times
Cmax difference, Example 84 versus Comparative Example 1 [1]: 6.9 times
Vd/F [1]: 37.9 ± 8.23 L/kg
AUC [1]: 54.6 ± 19.1 ng·h/mL
CL/F [1]: 673 ± 235 mL/min/kg
half-life [1]: 0.68 ± 0.14 h
MRT [1]: 1.2 ± 0.2 h
Cmax [1]: 48.8 ± 8.8 ng/mL
IC50 [2]: 42 nM
Structure (SMILES): COc1cn([C@@H](Cc2cccnc2)C(=O)Nc2ccc(C(=O)O)cc2)c(=O)cc1-c1cc(Cl)ccc1C(C)=O [Example 84, (S)-4-(2-(4-(2-acetyl-5-chlorophenyl)-5-methoxy-2-oxopyridin-1(2H)-yl)-3-(pyridin-3-yl)propanamido)benzoic acid]

Structure (SMILES): CCC(=O)c1ccc(Cl)cc1-c1cc(=O)n([C@H](CCOC(C)(C)C)C(=O)Nc2ccc(C(=O)O)cc2)cc1OC [Example 109, (R)-4-(4-(tert-butoxy)-2-(4-(5-chloro-2-propionylphenyl)-5-methoxy-2-oxopyridin-1(2H)-yl)butanamido)benzoic acid]
CT2, concentration doubling APTT (human blood; Table 2): >10000 µM

Structure (SMILES): [2H]C([2H])([2H])Oc1cn([C@@H](CCOC(C)(C)C)C(=O)Nc2ccc(C(=O)O)cc2)c(=O)cc1-c1cc(Cl)ccc1C(=O)CC [Example 177, 4-[[(2S)-4-tert-butoxy-2-[4-(5-chloro-2-propionyl-phenyl)-2-oxo-5-(trideuteromethoxy)-1-pyridyl]butyryl]amino]benzoic acid]
CT2, concentration doubling APTT (human blood; Table 2): 1.5 µM

Vd/F [1]: 45.4 ± 16.5 L/kg
AUC [1]: 382 ± 98 ng·h/mL
CL/F [1]: 92.5 ± 28.3 mL/min/kg
half-life [1]: 6.06 ± 2.99 h
MRT [1]: 5 ± 2.57 h
Cmax [1]: 167 ± 45 ng/mL
IC50 [2]: 90 nM
Structure (SMILES): COc1cn(C(Cc2ccccc2)C(=O)Nc2ccc(C(=O)O)cc2F)c(=O)cc1-c1cc(Cl)ccc1C(C)=O (stereo not drawn) [Example 29, 4-(2-(4-(2-acetyl-5-chlorophenyl)-5-methoxy-2-oxopyridin-1 (2H)-yl)-3-phenylpropanamido)-3-fluorobenzoic acid]

Structure (SMILES): CCC(=O)c1ccc(Cl)cc1-c1cc(=O)n([C@@H](Cc2ccn(C3CC3)n2)C(=O)Nc2ccc(C(=O)O)cc2)cc1OC [Example 92, (S)-4-(2-(4-(5-chloro-2-propionylphenyl)-5-methoxy-2-oxopyridin-1 (2H)-yl)-3-(1-cyclopropyl-1H-pyrazol-3-yl)propanamido)benzoic acid]
CT2, concentration doubling APTT (human blood; Table 2): 1.2 µM

Vd/F [1]: 6.24 ± 2.15 L/kg
AUC [1]: 701 ± 175 ng·h/mL
CL/F [1]: 49.9 ± 12.5 mL/min/kg
half-life [1]: 1.45 ± 0.32 h
MRT [1]: 1.71 ± 0.32 h
Cmax [1]: 462 ± 116 ng/mL
IC50 [2]: 35 nM
Structure (SMILES): COc1cn([C@@H](CC2CCC2)C(=O)Nc2ccc(C(=O)O)cc2)c(=O)cc1-c1cc(Cl)ccc1C(C)=O [Example 171, (S)-4-(2-(4-(2-acetyl-5-chlorophenyl)-5-methoxy-2-oxopyridin-1(2H)-yl)-3-cyclobutylpropanamido)benzoic acid]

Structure (SMILES): [2H]C([2H])([2H])C(=O)c1ccc(Cl)cc1-c1cc(=O)n([C@H](Cc2ccccc2)C(=O)Nc2ccc(C(=O)O)cc2)cc1OC [Example 184, 4-[[(2R)-2-[4-[5-chloro-2-(2,2,2-trideuteroacetyl)phenyl]-5-methoxy-2-oxo-1-pyridyl]-3-phenyl-propionyl]amino]benzoic acid]
CT2, concentration doubling APTT (human blood; Table 2): >10000 µM

Structure (SMILES): COc1cn([C@@H](CCOC(C)(C)C)C(=O)Nc2ccc3nccnc3c2)c(=O)cc1-c1cc(Cl)ccc1-c1nc(C)no1 [Comparative Example 2, (S)-4-(tert-butoxy)-2-(4-(5-chloro-2-(3-methyl-1,2,4-oxadiazol-5-yl)phenyl)-5-methoxy-2-oxopyridin-1 (2H)-yl)-N-(quinoxalin-6-yl)butanamide, reference compound]
CT2, concentration doubling APTT (human blood; Table 3 comparison): 13.1 µM

Structure (SMILES): [2H]C([2H])([2H])Oc1cn([C@H](CCOC(C)(C)C)C(=O)Nc2ccc(C(=O)O)cc2)c(=O)cc1-c1cc(Cl)ccc1C(=O)CC [Example 178, 4-[[(2R)-4-tert-butoxy-2-[4-(5-chloro-2-propionyl-phenyl)-2-oxo-5-(trideuteromethoxy)-1-pyridyl]butyryl]amino]benzoic acid]
CT2, concentration doubling APTT (human blood; Table 2): >10000 µM

Structure (SMILES): [2H]c1c([2H])c([2H])c(C([2H])([2H])[C@@H](C(=O)Nc2ccc(C(=O)O)cc2)n2cc(OC)c(-c3cc(Cl)ccc3C(C)=O)cc2=O)c([2H])c1[2H] [Example 181, 4-[[(2S)-2-[4-(2-acetyl-5-chloro-phenyl)-5-methoxy-2-oxo-1-pyridyl]-3,3-dideutero-3-(2,3,4,5,6-pentadeuterophenyl)propionyl]amino]benzoic acid]
CT2, concentration doubling APTT (human blood; Table 2): 2.3 µM

Structure (SMILES): COc1cn([C@H](Cc2ccccc2)C(=O)Nc2ccc(C(=O)O)cc2)c(=O)cc1-c1cc(Cl)ccc1C(C)=O [Example 6, (R)-4-(2-(4-(2-acetyl-5-chlorophenyl)-5-methoxy-2-oxopyridin-1(2H)-yl)-3-phenylpropanamido)benzoic acid]
CT2, concentration doubling APTT (human blood; Table 2): >10000 µM

Structure (SMILES): [2H]C([2H])([2H])C(=O)c1ccc(Cl)cc1-c1cc(=O)n([C@@H](Cc2ccccc2)C(=O)Nc2ccc(C(=O)O)cc2)cc1OC [Example 183, 4-[[(2S)-2-[4-[5-chloro-2-(2,2,2-trideuteroacetyl)phenyl]-5-methoxy-2-oxo-1-pyridyl]-3-phenyl-propionyl]amino]benzoic acid]
CT2, concentration doubling APTT (human blood; Table 2): 2.6 µM

IC50 [2]: 71 nM
Structure (SMILES): COc1cn(C(CC2CCCCO2)C(=O)Nc2ccc(C(=O)O)cc2)c(=O)cc1-c1cc(Cl)ccc1C(C)=O (stereo not drawn) [Example 176]

Structure (SMILES): COc1cn(C(CCOC2CCC2)C(=O)Nc2ccc(C(=O)O)cc2)c(=O)cc1-c1cc(Cl)ccc1C(C)=O (stereo not drawn) [Example 162, 4-(2-(4-(2-acetyl-5-chlorophenyl)-5-methoxy-2-oxopyridin-1(2H)-yl)-4-cyclobutoxybutanamido)benzoic acid]
IC50 [2]: 35 nM

IC50 [2]: 99 nM
Structure (SMILES): COc1cn(C(Cc2ccncc2)C(=O)Nc2ccc(C(=O)O)cc2)c(=O)cc1-c1cc(Cl)ccc1C(C)=O (stereo not drawn) [Example 86, 4-(2-(4-(2-acetyl-5-chlorophenyl)-5-methoxy-2-oxopyridin-1(2H)-yl)-3-(pyridin-4-yl)propanamido)benzoic acid]

Structure (SMILES): COc1cn(C(CCOC(C)(C)C)C(=O)Nc2ccc(C(=O)O)cc2)c(=O)cc1-c1cc(Cl)ccc1C(C)=O (stereo not drawn) [Example 110, 4-(2-(4-(2-acetyl-5-chlorophenyl)-5-methoxy-2-oxopyridin-1(2H)-yl)-4-(tert-butoxy)butanamido)benzoic acid]
IC50 [2]: 53 nM

IC50 [2]: 72 nM
Structure (SMILES): COc1ccccc1CC(C(=O)Nc1ccc(C(=O)O)cc1)n1cc(OC)c(-c2cc(Cl)ccc2C(C)=O)cc1=O (stereo not drawn) [Example 78, 4-(2-(4-(2-acetyl-5-chlorophenyl)-5-methoxy-2-oxopyridin-1(2H)-yl)-3-(2-methoxyphenyl)propanamido)benzoic acid]

AUC [1]: 7.27 ± 3.37 ng·h/mL
Cmax [1]: 7.02 ± 2.97 ng/mL
Structure (SMILES): COc1cn([C@@H](Cc2ccncc2)C(=O)Nc2ccc(C(=O)O)cc2)c(=O)cc1-c1cc(Cl)ccc1C#N [Comparative Example 1, (S)-4-(2-(4-(5-chloro-2-cyanophenyl)-5-methoxy-2-oxopyridin-1(21)-yl)-3-(pyridin-4-yl)propanamido)benzoic acid, reference compound]
